Source: ChEMBL document CHEMBL1128058, “Synthesis of novel iodinated radioligands with high affinity and selectivity for CCK-B/gastrin receptors” (Bioorg Med Chem Lett, 1995)

How the values were obtained:
[1] = target: T1, Cholecystokinin receptor type A (Rattus norvegicus, UniProt P30551); assay: Binding affinity towards CCK-A receptor in rat pancreas membrane using Hunter labelled CCK-8S assay; assay type: cell membranes
T1 sequence (P30551 whole entry): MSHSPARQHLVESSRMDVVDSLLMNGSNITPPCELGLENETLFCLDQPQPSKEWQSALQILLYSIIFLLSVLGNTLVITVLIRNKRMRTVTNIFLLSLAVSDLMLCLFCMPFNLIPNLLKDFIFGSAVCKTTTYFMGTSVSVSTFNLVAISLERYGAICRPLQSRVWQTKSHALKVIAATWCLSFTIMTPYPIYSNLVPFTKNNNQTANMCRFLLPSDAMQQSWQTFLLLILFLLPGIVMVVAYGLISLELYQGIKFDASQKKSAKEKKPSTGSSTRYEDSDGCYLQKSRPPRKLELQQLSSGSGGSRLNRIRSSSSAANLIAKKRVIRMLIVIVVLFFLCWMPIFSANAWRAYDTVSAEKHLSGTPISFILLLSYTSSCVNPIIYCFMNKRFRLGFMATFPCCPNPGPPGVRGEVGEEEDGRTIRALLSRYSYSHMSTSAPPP

[2] = target: T2, Gastrin/cholecystokinin type B receptor (Mus musculus, UniProt P56481); assay: Binding affinity towards CCK-B receptor in mouse cerebral cortex membrane using [125I]bolton assay; assay type: cell membranes
T2 sequence (P56481 whole entry): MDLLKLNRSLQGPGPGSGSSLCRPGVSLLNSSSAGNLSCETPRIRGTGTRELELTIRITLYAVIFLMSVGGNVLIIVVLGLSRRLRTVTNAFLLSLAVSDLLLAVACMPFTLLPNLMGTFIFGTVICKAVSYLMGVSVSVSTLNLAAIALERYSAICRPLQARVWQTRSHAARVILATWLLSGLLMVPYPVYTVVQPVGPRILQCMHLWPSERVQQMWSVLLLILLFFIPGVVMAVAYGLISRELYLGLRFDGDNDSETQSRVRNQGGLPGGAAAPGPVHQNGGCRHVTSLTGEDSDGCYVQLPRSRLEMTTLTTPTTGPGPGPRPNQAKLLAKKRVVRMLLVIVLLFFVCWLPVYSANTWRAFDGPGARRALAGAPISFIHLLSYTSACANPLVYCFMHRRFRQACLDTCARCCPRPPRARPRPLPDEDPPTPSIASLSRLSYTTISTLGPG

| SMILES | Ki [1] [µM] | Ki [2] [µM] |
| --- | --- | --- |
| C[C@](Cc1c[nH]c2ccccc12)(NC(=O)OC1C2CC3CC(C2)CC1C3)C(=O)N[C@@H](CC(=O)O)Cc1ccc(N)c(I)c1 (some centres undefined) | 0.158 | 0.00052 |
| C[C@](Cc1c[nH]c2ccccc12)(NC(=O)OC1C2CC3CC(C2)CC1C3)C(=O)N[C@@H](CC(=O)O)Cc1ccc(N=[N+]=[N-])c(I)c1 (some centres undefined) | 0.392 | 0.00088 |
